Source: patent publication US20190100731A1, “EX-VIVO […] MODEL, METHODS OF PRODUCING SAME AND USES THEREOF” (The State of Israel, Ministry of Agriculture & Rural …, priority 2016, published 2019)
“Also recorded” adds a separate entry of the source.

Key:
[1] = test system: IL-8; test: IL-8 secretion (ELISA) in D/C-treated ex-vivo intestinal biopsies; format: cell-based, human; set-up: IL-8 secretion Value: unit not given here
Description: (§1) Biopsies (3 mm3) obtained from inflamed or healthy intestines and placed in PBS were treated with a Dispase (1 U/ml, Cat # 07923, StemCell Technologies Inc.) and Collagenase Type 1 (0.5 mg/ml with an activity of 0.5-2 U/mg Cat # 07902, StemCell Technologies Inc.) solution. Tubes were then incubated for 2-3h at 37° C.
After incubation, the tubes containing the biopsies were centrifuged at 5000 rpm for 1 minute. Then the supernatants were removed and tissues were washed three times with Hank's balance salt solution (HBSS). After each wash tubes were centrifuged as mentioned above. Then the tissues were placed on small Petri dish and cut into 2-3 pieces with a clean scalpel. Explants were cultured in groups of 2-3 with the villus surface facing up on microporous membranes (0.45-m pore size) contained in either Millicell-HA or organotypic tissue culture inserts (Millipore) placed inside 6-well plastic tissue culture dishes (Costar 3506) along with 1.5 ml of tissue culture medium. The tissue culture medium was Dulbecco's modified Eagle's medium supplemented with 10% heat-inactivated fetal calf serum, penicillin (100units/ml), streptomycin (100 μg/ml), leupeptin (50 μg/ml), PMSF (1 mM), soybean trypsin inhibitor (50 μg/ml). In cases dexamethasone (DX) was included in the media, its concentration was 200 μg/ml. This is followed by treating the samples with Control and extracts treatments (cannabis or other). In cases TNF-α is added to induce ILs expression the concentration was 50 μg/ml. Cultures are then incubated at 37° C. and gassed hourly with 95% oxygen and 5% carbon dioxide. For evaluation of TNF-α expression, supernatants are taken after 1 h of incubation. For other ILs, supernatants are taken after overnight incubation unless mentioned differently. The supernatants from biopsies are used for determination of cytokine profile by measuring their levels using commercial ELISA Kits. The following cytokines were measured: TNF Alfa (the supernatant was taken after 1-3 h), for the rest of the cytokines and interleukins supernatant was analyzed after 16 hours. The following factors were analyzed: IFN gamma, TFG beta, IL-10, IL-23/IL-23R, IL-12, IL-1 (IL 113), IL 2, IL-8/IL-8R, IL-6, IL-17, IL-13, IL-5, IL-4, IL-3. Levels of secreted factors from inflamed and healthy tissue and from cannabis treated and not treated tissue were compared. After all samples are taken, tissue viability will be assessed by addition of Alamar blue (Risazurin) as described below.
Biopsies obtained from both healthy and sick intestinal samples of two patients were cultured overnight incubation using the full protocol (D/C) described in material and methods section hereinabove. Seven different cytokines were evaluated following overnight incubation using specific ELISA kits manufactured by R&D Systems.
The cytokines tested included TNF-α, IL-6, IL-8, IL-10, IL-12, IL-17 and IL-27. In addition to the ethanolic cannabis extract was tested for its ability to reduce inflammation. After supernatant sampling, additional media was added to the wells and Resazurin (alamar blue) viability assay was carried out. […] Responsive cytokines that show significant levels of expression (FIGS. 1A-F) on one hand vs. other ILs in which basal level were obtained which didn't allow a clear conclusion (FIGS. 2A-D).
Several more experiments were done to corroborate the above results. These are summarized in Table 1 below(C2F and F7 and dexamethasone).

[2] = test system: IL-6; test: IL-6 production (ELISA) in ex-vivo intestinal biopsies; format: cell-based, human; conditions: D/C treated biopsies of patient P6; 18 hours; pure CBD 25 μM / 16.6 μM (FIG. 5)
Description: as §1
After incubation, the tubes containing the biopsies were centrifuged at 5000 rpm for 1 minute. Then the supernatants were removed and tissues were washed three times with Hank's balance salt solution (HBSS). After each wash tubes were centrifuged as mentioned above. Then the tissues were placed on small Petri dish and cut into 2-3 pieces with a clean scalpel. […] The following cytokines were measured: TNF Alfa (the supernatant was taken after 1-3 h), for the rest of the cytokines and interleukins supernatant was analyzed after 16 hours. The following factors were analyzed: IFN gamma, TFG beta, IL-10, IL-23/IL-23R, IL-12, IL-1 (IL 113), IL 2, IL-8/IL-8R, IL-6, IL-17, IL-13, IL-5, IL-4, IL-3. […] After all samples are taken, tissue viability will be assessed by addition of Alamar blue (Risazurin) as described below. […]

[3] = biopsy PH-13-H: healthy patient 13, healthy tissue
[4] = biopsy PH-15-H: healthy patient 15, healthy tissue
[5] = biopsy PS-3-H: sick patient 3, healthy tissue
[6] = biopsy PS-3-S: sick patient 3, sick tissue
[7] = biopsy PS-4-H: sick patient 4, healthy tissue
[8] = biopsy PS-4-S: sick patient 4, sick tissue
[9] = biopsy PS-7-H: sick patient 7, healthy tissue
[10] = biopsy PS-7-S: sick patient 7, sick tissue
[11] = biopsy PS-8-H: sick patient 8, healthy tissue
[12] = biopsy PS-11-H: sick patient 11, healthy tissue
[13] = biopsy PS-11-S: sick patient 11, sick tissue
[14] = biopsy PS-12-H: sick patient 12, healthy tissue
[15] = biopsy PS-12-S: sick patient 12, sick tissue
[16] = biopsy PS-14-H: sick patient 14, healthy tissue
[17] = biopsy PS-14-S: sick patient 14, sick tissue
[18] = biopsy PS-16-H: sick patient 16, healthy tissue
[19] = biopsy PS-16-S: sick patient 16, sick tissue
[20] = biopsy PS-17-H: sick patient 17, healthy tissue
[21] = biopsy PS-17-S: sick patient 17, sick tissue
[22] = biopsy PS-18-H: sick patient 18, healthy tissue
[23] = biopsy PS-18-S: sick patient 18, sick tissue
[24] = biopsy PS-19-H: sick patient 19, healthy tissue
[25] = biopsy PS-19-S: sick patient 19, sick tissue

C[C@@H]1C[C@H]2[C@@H]3CCC4=CC(=O)C=C[C@]4(C)[C@@]3(F)[C@@H](O)C[C@]2(C)[C@@]1(O)C(=O)CO [Dexamethasone, dexamethasone]
IL-8 secretion % Reduction from NT [1, 3]: −1.1% | IL-8 secretion Value [1, 3]: 844.6 | IL-8 secretion % Reduction from NT [1, 4]: 46.4% | IL-8 secretion Value [1, 4]: 451.9 | IL-8 secretion % Reduction from NT [1, 5]: 32.4% | IL-8 secretion Value [1, 5]: 670.1 | IL-8 secretion % Reduction from NT [1, 6]: 17.5% | IL-8 secretion Value [1, 6]: 742.6 | IL-8 secretion % Reduction from NT [1, 7]: 4.3% | IL-8 secretion Value [1, 7]: 915.4 | IL-8 secretion % Reduction from NT [1, 8]: 78.3% | IL-8 secretion Value [1, 8]: 216.9 | IL-8 secretion % Reduction from NT [1, 9]: 14.7% | IL-8 secretion Value [1, 9]: 745.1 | IL-8 secretion % Reduction from NT [1, 10]: −5.6% | IL-8 secretion Value [1, 10]: 793.9 | IL-8 secretion % Reduction from NT [1, 11]: 69.5% | IL-8 secretion Value [1, 11]: 215.3 | IL-8 secretion % Reduction from NT [1, 12]: 94.8% | IL-8 secretion Value [1, 12]: 34.9 | IL-8 secretion % Reduction from NT [1, 13]: 83.3% | IL-8 secretion Value [1, 13]: 74.2 | IL-8 secretion % Reduction from NT [1, 14]: 43.7% | IL-8 secretion Value [1, 14]: 530.6 | IL-8 secretion % Reduction from NT [1, 15]: 4.0% | IL-8 secretion Value [1, 15]: 817.8 | IL-8 secretion % Reduction from NT [1, 16]: 44.2% | IL-8 secretion Value [1, 16]: 485.8 | IL-8 secretion % Reduction from NT [1, 17]: 24.1% | IL-8 secretion Value [1, 17]: 666.8 | IL-8 secretion % Reduction from NT [1, 18]: 38.3% | IL-8 secretion Value [1, 18]: 166.5 | IL-8 secretion % Reduction from NT [1, 19]: 83.6% | IL-8 secretion Value [1, 19]: 96.7 | IL-8 secretion % Reduction from NT [1, 20]: 68.9% | IL-8 secretion Value [1, 20]: 303.5 | IL-8 secretion % Reduction from NT [1, 21]: 0.5% | IL-8 secretion Value [1, 21]: 1064.0 | IL-8 secretion % Reduction from NT [1, 22]: 66.4% | IL-8 secretion Value [1, 22]: 331.0 | IL-8 secretion % Reduction from NT [1, 23]: 36.1% | IL-8 secretion Value [1, 23]: 484.9 | IL-8 secretion % Reduction from NT [1, 24]: 32.6% | IL-8 secretion Value [1, 24]: 86.0 | IL-8 secretion % Reduction from NT [1, 25]: 64.2% | IL-8 secretion Value [1, 25]: 80.5

C=C(C)[C@@H]1CCC(C)=C[C@H]1c1c(O)cc(CCCCC)cc1O [CBD, Cannabidiol]
anti-inflammatory activity (IL-6 production) [2]: doesn't harbor any anti-inflammatory activity; also recorded: no anti-inflammatory activity
